Source: ChEMBL document CHEMBL1126450, “Semisynthetic modification of hygromycin A. 3. synthesis and antibacterial activity of aminocyclitol analogs” (1992)
In brackets after ≈: the same amount, converted by molar mass.

Tests used:
Pasteurella multocida = experiment: The minimum inhibitory concentration (MIC) of the cyclohexylamide analogs against Pasteurella multocida; type: functional
[1] = system: Brachyspira hyodysenteriae; experiment: The minimum inhibitory concentration (MIC) of the cyclohexylamide analogs against Serpulina hyodysenteriae; type: functional

Q: Which results are given for `CO[C@@H]1[C@H](O)[C@@H](O)[C@@H](NC(=O)/C(C)=C\c2ccc(O[C@@H]3O[C@H](C(C)=O)[C@@H](O)[C@@H]3O)c(O)c2)[C@@H](O)[C@@H]1OC`?
A: MIC (Pasteurella multocida): > 400 µg/mL; MIC [1]: 100 µg/mL (≈ 190 µM)

Q: For `CO[C@@H]1[C@@H](O)[C@H]2OCO[C@H]2[C@H](O)[C@@H]1NC(=O)/C(C)=C\c1ccc(O[C@@H]2O[C@H](C(C)=O)[C@@H](O)[C@@H]2O)c(O)c1`, which MIC (Pasteurella multocida) is on record?
A: 12.5 µg/mL (≈ 23.8 µM)

Q: What about the MIC [1] of the same molecule?
A: 3.13 µg/mL (≈ 5.96 µM)

Q: What does the source list for `CC(=O)[C@H]1O[C@@H](Oc2ccc(/C=C(\C)C(=O)N[C@H]3C4OC(C5OCOC54)[C@H]3O)cc2O)[C@@H](O)[C@@H]1O` (some centres undefined)?
A: MIC (Pasteurella multocida): > 200 µg/mL; MIC [1]: > 200 µg/mL

Q: Which MIC (Pasteurella multocida) does the source give for `CO[C@@H]1[C@@H](O)[C@@H](NC(=O)/C(C)=C\c2ccc(O[C@@H]3O[C@H](C(C)=O)[C@@H](O)[C@@H]3O)c(O)c2)[C@@H](O)[C@@H]2OCO[C@H]12` here?
A: 100 µg/mL (≈ 190 µM)

Q: What about the MIC [1] of the same molecule?
A: 25 µg/mL (≈ 47.6 µM)

Q: `CC(=O)[C@H]1O[C@@H](Oc2ccc(/C=C(/C)C(=O)N[C@H]3[C@@H](O)[C@@H]4OCO[C@@H]4[C@H](O)[C@@H]3O)cc2O)[C@@H](O)[C@@H]1O` was tested. Which MIC (Pasteurella multocida) did it give?
A: 12.5 µg/mL (≈ 24.4 µM)

Q: And the MIC [1]?
A: 3.13 µg/mL (≈ 6.12 µM)

Q: Which MIC (Pasteurella multocida) does the source give for `CO[C@@H]1[C@H](NC(=O)/C(C)=C\c2ccc(O[C@@H]3O[C@H](C(C)=O)[C@@H](O)[C@@H]3O)c(O)c2)[C@H](O)[C@@H](O)[C@H]2OCO[C@H]21` here?
A: 12.5 µg/mL (≈ 23.8 µM)

Q: What about the MIC [1] of the same molecule?
A: 6.25 µg/mL (≈ 11.9 µM)

Q: `CC(=O)[C@H]1O[C@@H](Oc2ccc(/C=C(\C)C(=O)N[C@@H]3[C@H](O)[C@@H](O)[C@H]4OCO[C@H]4[C@@H]3O)cc2O)[C@@H](O)[C@@H]1O` [HYGROMYCIN A] was tested. Which MIC (Pasteurella multocida) did it give?
A: 1.56 µg/mL (≈ 3.05 µM)

Q: And the MIC [1]?
A: 1.56 µg/mL (≈ 3.05 µM)
